In patent US8759481B2, “Peptide vaccines for cancers expressing tumor-associated antigens” (Oncotherapy Science, Inc., priority 2007, dated 2014):
Entries after “also recorded” stand apart in the source; their conditions may differ. Ends that are not written are not given here.

Experiments:
Assay type in all cases: cell-based, human
PK45P cancer cell line = experiment: 51Cr release cytotoxicity assay; conditions: PK45P expressing both KIF20A and HLA-A24; listed as KIF20A-A24-9-305
Procedure: (§1) Cytotoxic activity was evaluated by a four-hour ^51Cr release assay. The target cells were pulsed with a 20 micro g/mL concentration of peptide overnight. The target cells were labeled with 100 micro Ci of Na2^51CrO4 at 37 degrees C. for one hour, and then washed three times with RPMI1640. The target cells (1×10^4/100 micro L) and 100 micro L of effector cells at various numbers with a total volume of 200 micro L were placed into a round-bottomed 96-well microtiter plate (Corning), and cultured at 37 degrees C. in a CO2 incubator for four hours. After culturing, 100 micro L of the supernatant was collected from each well, and measured the radioactivity using a gamma counter. Spontaneous release was the radioactivity from the target cells with medium in the absence of effector cells, and maximum release was the radioactivity from the target cells with 1 M HCl.
(§2) The Percentage of specific cytotoxicity was determined by calculating as following formula: % Specific lysis=[(experimental release−spontaneous release)/(maximum release−spontaneous release)]×100. Results Enhanced CDH3, EPHA4, ECT2, HIG2, INHBB, KIF20A, KNTC2, TTK and URLC10 Expression in Cancers
(§3) Furthermore, Cytotoxic activity was examined by cytotoxicity assay according to the protocols set forth in the “Materials and Methods” section above.

PK59 cancer cell line = experiment: 51Cr release cytotoxicity assay; conditions: PK59 expressing KIF20A but not HLA-A24
Procedure: as §1, §2, §3

[1] = tested on: target cells pulsed with the peptide; experiment: 51Cr release cytotoxicity assay
Procedure: as §1, §2

[2] = tested on: MIAPaca2 cancer cell line; experiment: 51Cr release cytotoxicity assay
Procedure: as §1, §2
Furthermore, Cytotoxic activity was performed by cytotoxicity assay according to the protocols set forth in the “Materials and Methods” section above. […]

Caki-1 cancer cell line = experiment: 51Cr release cytotoxicity assay; conditions: Caki-1 expressing INHBB but not HLA-A02
Procedure: as §1, §2, §3

[3] = tested on: peptide-pulsed A24-LCL cells; experiment: IFN-gamma ELISPOT assay (positive wells); conditions: HLA-A24 peptides; as compared to the control
Summary of the method: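 PBMC-derived DCs from HLA-A*2402 and/or A*0201 donors, pulsed with 20 micro g/ml peptide plus 3 micro g/ml beta 2-microglobulin, stimulated autologous CD8+ T cells three times (days 0, 7, 14). On day 21, responders were tested against peptide-pulsed A24-LCL or T2 cells by IFN-gamma ELISPOT. Values are reported as positive wells/wells tested; CTL lines confirmed by ELISA.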

[4] = tested on: COS7 transfected with full length KIF20A gene and HLA-A*2402; experiment: Specific CTL activity against transfected target cells; conditions: CTL line or clone raised by the peptide, vs control transfectants
Procedure: (§4) Briefly, peptide-pulsed A24-LCL or T2 cell (1×10^4/well) was prepared as stimulator cells. Cultured Cells in 48 wells or CTL clones after limiting dilution were used as responder cells. IFN-gamma ELISPOT assay and ELISA assay were performed under manufacture procedure.
(§5) The cDNA encoding an open reading frame of target genes or HLA-A02 or HLA-A24 was amplified by PCR. The PCR-amplified product was cloned into pcDNA3.1 myc-His vector (Invitrogen). The plasmids were transfected into the target cells, HLA-A02 and HLA-A24-null normal human cell line COS7 or 293T using lipofectamine (Invitrogen) according to the manufacturer's recommended procedures. Alternatively, the plasmid contained the target genes were transfected into A24-LCL by electroporation using GenePulserII (Biorad). Briefly, 2.5×10^6 A24-LCL cells were pulsed with 10 mcg prasmid at 140V and 1000 micro F. After 2 days from transfection, the transfected cells were treated with Cell dissociation solution and used as the target cells for CTL activity assay.
The established CTL line raised against these peptides were examined for their ability to recognize the target cells expressing KIF20A and HLA-A*2402. […]

[5] = tested on: peptide-pulsed A24-LCL cells; experiment: CTL line establishment, IFN-gamma ELISA; conditions: HLA-A24 peptides; vs target without peptide pulse
Summary of the method: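 Peptide-pulsed A24-LCL or T2 cells (1×10^4/well) served as stimulators for responder cells from 48-well cultures or limiting-dilution CTL clones. Positive wells scored by IFN-gamma ELISPOT; CTL line establishment from positive wells confirmed by IFN-gamma ELISA; lines expanded with anti-CD3 (40 ng/ml), IL-2 and MMC-inactivated B-LCL feeders.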

[6] = tested on: peptide-pulsed A24-LCL cells; experiment: CTL clones by limiting dilution, specific CTL activity; conditions: HLA-A24 peptides; vs target without peptide pulse
Procedure: The dilutions were made to have 0.3, 1, and 3 CTLs/well in 96 round-bottomed micro titer plate (Nalge Nunc International). CTLs were cultured with 7×10^4 cells/well of 2 kinds of human B-lymphoblastoid cell lines, 30 ng/ml of anti-CD3 antibody, and 125 U/ml of IL-2 in total of 150 micro 1/well of AIM-V containing 5% AS. 50 micro 1/well of IL-2 was added to the medium 10 days later so that IL-2 became 125 U/ml in the final concentration. CTL activity of CTLs was tested on the 14th day, and CTL clones were expanded using the same method above.
as §4

[7] = tested on: HEK293 transfected with full length KNTC2 gene and HLA-A*2402; experiment: Specific CTL activity against transfected target cells; conditions: vs control transfectants; listed as KNTC2-A24-10-452
Procedure: as §4, §5
The established CTL line raised against these peptides were examined for their ability to recognize the target cells expressing KNTC2 and HLA-A*2402. […] HEK293 transfected with full length KNTC2 but not HLA-A*2402, HEK293 transfected with HLA-A*2402 but not full length KNTC2 and HEK293 transfected with HLA-A*2402 and pulsed with KNTC2-9-309 were prepared as controls.

[8] = tested on: COS7 transfected with full length ECT2 gene and HLA-A*2402; experiment: as above; conditions: CTL clone or line raised by the peptide; vs control transfectants; listed as ECT2-A24-10-40
Procedure: as §4, §5
The established CTL line raised against these peptides were examined for their ability to recognize the target cells expressing ECT2 and HLA-A*2402. […] COS7 transfected with full length ECT2 but not HLA-A*2402 and COS7 transfected with HLA-A*2402 but not full length ECT2 (replaced other gene e.g. URLC10 or INHBB) were prepared as controls.

peptide-pulsed T2 cells [9] = experiment: CTL line establishment, IFN-gamma ELISA; conditions: HLA-A02 peptides; vs target without peptide pulse
Summary of the method: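 CTLs expanded with MMC-inactivated B-lymphoblastoid lines, 40 ng/ml anti-CD3 and IL-2 (120 IU/ml day 1, then 30 IU/ml on days 5, 8, 11). Peptide-pulsed T2 or A24-LCL stimulators (1×10^4/well) incubated with cultured wells or limiting-dilution clones as responders; IFN-gamma detected by ELISPOT (positive wells) and ELISA (established CTL lines).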

[10] = tested on: COS7 transfected with full length HIG2 gene and HLA-A*0201; experiment: Specific CTL activity against transfected target cells; conditions: CTL line raised by the peptide; vs control transfectants; listed as HIG2-A02-9-15
Procedure: as §4, §5
(§6) The established CTL line raised against these peptides were examined for their ability to recognize the target cells expressing HIG2 and HLA-A*0201. […] 293T or COS7 transfected with full length ECT2 but not HLA-A*0201 and 293T or COS7 transfected with HLA-A*0201 but not full length ECT2 (or replaced other gene e.g. FoxP3 or TTK) were prepared as controls.

peptide-pulsed T2 cells [11] = experiment: IFN-gamma ELISPOT assay (positive wells); conditions: HLA-A02 peptides; as compared to the control
Summary of the method: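 CD8+ T cells from HLA-A*2402 and/or HLA-A*0201 donors were stimulated 1:20 with autologous monocyte-derived DCs pulsed with 20 µg/ml peptide plus β2-microglobulin, in IL-7, with IL-2 added, restimulated on days 7 and 14. On day 21, IFN-γ ELISPOT against peptide-pulsed T2 or A24-LCL cells (1×10^4/well) scored wells as positive, with CTL lines confirmed by ELISA.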

TE5 cancer cell line = experiment: 51Cr release cytotoxicity assay; conditions: TE5 expressing only ECT2
Procedure: as §1, §2, §3

TE6 cancer cell line = experiment: 51Cr release cytotoxicity assay; conditions: TE6 endogenously expressing ECT2 and HLA-A24; listed as ECT2-A24-9-515
Procedure: as §1, §2, §3

[12] = tested on: 293T transfected with full length HIG2 gene and HLA-A*0201; experiment: Specific CTL activity against transfected target cells; conditions: CTL line raised by the peptide; vs control transfectants; listed as HIG2-A02-9-8
Procedure: as §4, §5, §6

Substance: FFEIYNELL [SEQ ID NO: 174]
- Cytotoxic activity against PK45P (Cr-release assay) (PK45P cancer cell line): remarkably high cytotoxic effect; also recorded: very potent cytotoxic activity
- Cytotoxic activity against PK59 (Cr-release assay) (PK59 cancer cell line): did not show significant specific cytotoxic activity

Substance: GLNPLTSYV [SEQ ID NO: 376, GLNPLTSYV]
- Cytotoxic activity of CTL line against target cells pulsed with the peptide (Cr-release assay) [1]: very potent specific cytotoxic activity

Substance: KLNTEIRDV [SEQ ID NO: 379, KLNTEIRDV]
- Cytotoxic activity of CTL line against target cells pulsed with the peptide (Cr-release assay) [1]: very potent specific cytotoxic activity

Substance: LYLKLLPYV [SEQ ID NO: 395]
- Cytotoxic activity against MIAPaca2 (Cr-release assay) ([2]; INHBB-positive, compared to CAki-2, listed as INHBB-A24-9-180): remarkably high cytotoxic effect; also recorded: high specific cytotoxic activity
- Cytotoxic activity against Caki-1 (Cr-release assay) (Caki-1 cancer cell line): did not show significant specific cytotoxic activity

Substance: SEQ ID NO: 178: HLA-A*2402 binding 9-mer peptide derived from KIF20A (IFSIRILHL)
- IFN-gamma production by IFN-gamma ELISPOT assay [3]: potent IFN-gamma production
- Specific CTL activity against COS7 transfected with both KIF20A and HLA-A24 ([4]; listed as KIF20A-A24-9-383): highest specific CTL activity; also recorded: high specific CTL activity
- Establishment of CTL line, specific CTL activity against the peptide-pulsed target determined by ELISA [5]: CTL lines were established

Substance: SEQ ID NO: 194: HLA-A*2402 binding 10-mer peptide derived from KIF20A (KVYLRVRPLL)
- CTL activities of CTL clones against the peptide-pulsed target [6]: potent and specific CTL activities
- IFN-gamma production by IFN-gamma ELISPOT assay [3]: potent IFN-gamma production
- Specific CTL activity against COS7 transfected with both KIF20A and HLA-A24 ([4]; listed as KIF20A-A24-10-66): highest specific CTL activity
- Establishment of CTL line, specific CTL activity against the peptide-pulsed target determined by ELISA [5]: CTL lines were established

Substance: SEQ ID NO: 214: HLA-A*2402 binding 10-mer peptide derived from KNTC2 (KYRAQVYVPL)
- CTL activities of CTL clones against the peptide-pulsed target [6]: potent and specific CTL activities
- IFN-gamma production by IFN-gamma ELISPOT assay [3]: potent IFN-gamma production
- Specific CTL activity against HEK293 transfected with both KNTC2 and HLA-A24 [7]: highest specific CTL activity
- Establishment of CTL line, specific CTL activity against the peptide-pulsed target determined by ELISA [5]: CTL lines were established

Substance: SFFEIYNELL [SEQ ID NO: 186]
- Cytotoxic activity against MIAPaca2 (Cr-release assay) ([2]; Miapaca2 expressing both KIF20A and HLA-A24, listed as KIF20A-A24-10-304): remarkably high cytotoxic effect; also recorded: very potent specific cytotoxic activity
- Cytotoxic activity against PK59 (Cr-release assay) (PK59 cancer cell line): did not show significant specific cytotoxic activity

Substance: SYVEeEMPQI (SYVEEEMPQI; not fully specified; printed as SYVEeEMPQI) [SEQ ID NO: 100]
- CTL activities of CTL clones against the peptide-pulsed target [6]: potent and specific CTL activities
- Specific CTL activity against COS7 transfected with both ECT2 and HLA-A24 [8]: highest specific CTL activity; also recorded: high specific CTL activity
- IFN-gamma production by IFN-gamma ELISPOT assay [3]: potent IFN-gamma production
- Establishment of CTL line, specific CTL activity against the peptide-pulsed target determined by ELISA [5]: CTL lines were established

Substance: TLLSIFVRV [SEQ ID NO: 116]
- Establishment of CTL line, specific CTL activity against the peptide-pulsed target determined by ELISA (peptide-pulsed T2 cells [9]): CTL lines were established
- Specific CTL activity against COS7 transfected with both HIG2 and HLA-A02 [10]: highest specific CTL activity; also recorded: high specific CTL activity
- IFN-gamma production by IFN-gamma ELISPOT assay (peptide-pulsed T2 cells [11]): potent IFN-gamma production

Substance: TYPPFVNFF [SEQ ID NO: 80, TYPPFVNFF]
- Cytotoxic activity against TE5 (Cr-release assay) (TE5 cancer cell line): did not demonstrate the cytotoxic activity
- Cytotoxic activity against TE6 (Cr-release assay) (TE6 cancer cell line): remarkably high cytotoxic effect; also recorded: very potent cytotoxic activity

Substance: YLLGVVLTL [SEQ ID NO: 114]
- Establishment of CTL line, specific CTL activity against the peptide-pulsed target determined by ELISA (peptide-pulsed T2 cells [9]): CTL lines were established
- Specific CTL activity against 293T transfected with both HIG2 and HLA-A02 [12]: highest specific CTL activity; also recorded: high specific CTL activity
- IFN-gamma production by IFN-gamma ELISPOT assay (peptide-pulsed T2 cells [11]): potent IFN-gamma production
